What was measured:
[1] = oral, 12-week treatment; cited from earlier work
[2] = tested on: airway inflammation after LPS challenge; parameters: method as in PMID 17045826; conditions: oral, 6-day treatment; cited from earlier work
[3] = tested on: IL-6, MPO, MCP-1 and MIP-1β in sputum supernatant; test: Inhaled LPS challenge: sputum supernatant protein biomarkers; type: in vivo, human; conditions: study 3
Protocol: A baseline sputum sample was obtained within 14 days of the first study period when subjects were administered a single dose of randomised treatment. […] Induced sputum was obtained 6 h later to coincide with the maximal inflammatory response caused by inhaled LPS. A washout period of at least 21 days followed, with subjects returning after 14 days of the washout period for induced sputum sampling; this was performed to ensure that the total cell count, total neutrophil count and total macrophage count were within the range of −80 to +100 % of the screening values. […] If these criteria were not met, then up to two repeat visits to obtain sputum were allowed, with at least 4 days between sputum inductions. The next randomised treatment day was scheduled at least 4 days after sputum induction and was identical to the first treatment day.
Sputum was induced using normal saline after inhalation of salbutamol, and processing was performed using dithiothreitol (DTT) as previously described [20]. The supernatants were stored at −80 °C for later analysis, while cells were used to produce cytoslides (Cytospin 4, Shandon, Runcorn, UK) for differential cell counting and immunocytochemistry. Cytoslides for differential cell count were fixed in methanol (Sigma) and then stained with Rapi-Diff® (GCC Diagnostics, Sandyhurst, UK) or Wright-modified Giemsa (Accustatin WG-18, Sigma-Aldrich); a minimum of 400 non-squamous cells were counted and differential cell counts obtained as percentage of total non-squamous cells. Cell viability was analysed by trypan blue exclusion. Cytoslides with % squamous cell counts <20 % were deemed to be of acceptable quality for differential cell counting. Unfixed cytoslides were wrapped in aluminium foil and stored frozen at −80 °C for immunocytochemistry.
In studies 1 and 2, sputum supernatants were analysed for interleukin 6 (IL-6), myeloperoxidase (MPO), monocyte chemotactic protein-1 (MCP-1) and macrophage inflammatory protein-1β (MIP-1 β), using electrochemiluminescent immunoassays (ECLIA) or enzyme-linked immunosorbent assays (ELISA); the manufacturers are listed in the online supplement. In study 3, sputum supernatants were analysed for IL-6, MCP-1 and MIP-1β by the same method.

[4] = tested on: sputum neutrophils and macrophages after inhaled LPS; test: Inhaled LPS challenge in healthy subjects: induced sputum cell counts; type: in vivo, human; conditions: study 3
Protocol: Three randomised, double-blind, placebo-controlled crossover studies were performed; the effects of a single dose of active treatment was investigated in all three studies. […] Studies 2 and 3 were conducted at two UK centres: Quintiles Drug Research Unit, London, and Medicines Evaluation Unit, Manchester. […] The studies were performed during the following time periods: study 1, Sep 2006–Mar 2008; study 2, Jan 2011–Dec 2011; and study 3, Jul 2011–Jan 2012. The design of all three studies was similar. A baseline sputum sample was obtained within 14 days of the first study period when subjects were administered a single dose of randomised treatment. […] Induced sputum was obtained 6 h later to coincide with the maximal inflammatory response caused by inhaled LPS. […] This criterion was used to ensure that sputum cell counts after LPS challenge had returned to close to the original baseline values; this was done to reduce data variability between treatment periods. […] For each challenge, a 1-mg vial of lyophilised LPS (Escherichia coli serotype O26:B6, ref. L-2654, Sigma-Aldrich, Dorset, UK) was diluted with 4 mL of 0.9 % w/v sodium chloride. The reconstitution produced a 0.25 mg/mL solution, of which 2 mL was placed into the pre-calibrated dosimeter pot and administered via five inhalations from a breath-activated dosimeter (Mefar dosimeter MB3, Brescia, Italy). Each inhalation was performed over 3 s with a 6-s breath hold. […] Sputum was induced using normal saline after inhalation of salbutamol, and processing was performed using dithiothreitol (DTT) as previously described. The supernatants were stored at −80 °C for later analysis, while cells were used to produce cytoslides (Cytospin 4, Shandon, Runcorn, UK) for differential cell counting and immunocytochemistry. […] Cell viability was analysed by trypan blue exclusion. Cytoslides with % squamous cell counts <20 % were deemed to be of acceptable quality for differential cell counting. Unfixed cytoslides were wrapped in aluminium foil and stored frozen at −80 °C for immunocytochemistry. Sputum neutrophil percentage was the primary endpoint for all three studies. The neutrophil percentage was modelled using a mixed effects analysis of covariance (ANCOVA) model appropriate for a two-period, two-treatment or three-period, three-treatment crossover design. The fixed effects in the model were treatment and period. Subjects were modelled as a random effect. Additionally, the period-specific baseline was modelled as a covariate. This model was used for all sputum inflammatory markers, including the immunohistocytochemistry, where cell counts were log transformed before analyzing the data and percent differentials were not transformed. […] Ninety percent confidence intervals of the difference (non-transformed data) or the ratio (log-transformed data) were constructed based on the ANCOVA model.

[5] = parameters: method as in PMID 12373268; conditions: single inhaled dose; cited from earlier work
[6] = tested on: IL-6, MCP-1, MIP1β, CC16, fibrinogen and CRP levels in plasma; test: Inhaled LPS challenge: plasma protein biomarkers; type: in vivo, human; conditions: study 3
Protocol: Blood samples were obtained in studies 2 and 3 to obtain plasma measurements of IL-6, MCP-1, MIP1β, CC16, fibrinogen and CRP levels; pre-dose and 6 h post-LPS samples were used for statistical analysis. This coincided with the timings of sputum measurements of inflammation biomarkers.
Systemic biomarkers were analysed using a similar mixed effects model; these models also adjusted for pre-dose baseline values, which were obtained 24 h prior to LPS challenge in study 2 and 30 min prior to LPS challenge in study 3.

[7] = Plasma pharmacokinetics (sparse sampling); type: in vivo, human; conditions: study 3, fluticasone 500 μg inhaled
[8] = fluticasone 500 μg inhaled, post LPS
[9] = fluticasone propionate 500 μg inhaled
[10] = fluticasone 500 μg inhaled, post LPS, ANCOVA model mean
[11] = fluticasone 500 μg inhaled, 6 hrs post LPS

SMILES: Cc1c(F)cc(C(=O)NC2CC2)cc1-c1ccc(C(=O)NCC(C)(C)C)cn1 [losmapimod, reference compound]
- sputum neutrophil counts in COPD patients [1]: failed to reduce

SMILES: C[C@]12C=CC(=O)C=C1CC[C@@H]1[C@@H]2[C@@H](O)C[C@@]2(C)[C@H]1CC[C@]2(O)C(=O)CO [prednisolone]
- airway inflammation in an LPS challenge study [2]: no effect
- plasma CRP levels in an LPS challenge study [2]: suppressed

SMILES: CCC(=O)O[C@]1(C(=O)SCF)[C@H](C)C[C@H]2[C@@H]3C[C@H](F)C4=CC(=O)C=C[C@]4(C)[C@@]3(F)[C@@H](O)C[C@@]21C [fluticasone propionate, reference compound]
- Sputum IL-6, mean [3, 8]: 200.97 pg/mL
- Sputum MCP-1, mean [3, 8]: 133.79 pg/mL
- Sputum MIP-1β, mean [3, 8]: 1157.87 pg/mL
- sputum cytokine measurements compared to placebo [3, 9]: no effects
- Mean (SD) sputum neutrophil percentage ([4]; fluticasone 500 μg inhaled single dose, 6 h post-LPS): 70.0 (12.9) %
- Macrophage Differential in sputum [4, 10]: 27.53%
- Total Cell Count in sputum [4, 10]: 3.02e+06 g⁻¹
- Total Macrophage Count in sputum [4, 10]: 820000 g⁻¹
- Total Neutrophil Count in sputum [4, 10]: 2.04e+06 g⁻¹
- sputum neutrophil percentage post-LPS challenge compared to placebo ([4]; fluticasone propionate 500 μg inhaled single dose, p = 0.55): not changed significantly
- Total Cell Count in sputum, Ratio of Means active/placebo ([4]; post LPS): 0.90
- Total Macrophage Count in sputum, Ratio of Means active/placebo ([4]; post LPS): 0.93
- Total Neutrophil Count in sputum, Ratio of Means active/placebo ([4]; post LPS): no effects
- Macrophage Differential in sputum, difference between the active treatment mean and the placebo mean ([4]; post LPS, footnote: difference, not ratio): 2.04%
- Total Neutrophil Count in sputum, Ratio of Means active/placebo ([4]; post LPS, listed as Fluticasone): 0.66
- effects of bronchial challenges in asthma [5]: significantly inhibit
- Plasma CC16, mean [6, 11]: 10.51 ng/mL
- Plasma CRP, mean [6, 11]: 708.10 ng/mL
- Plasma Fibrinogen, mean [6, 11]: 2058.00 µg/mL
- Plasma IL-6, mean [6, 11]: 23.30 pg/mL
- Plasma MCP-1, mean [6, 11]: 401.70 pg/mL
- Plasma MIP-1β, mean [6, 11]: 76.95 pg/mL
- systemic biomarkers compared to placebo [6, 9]: no effect
- Plasma concentration ([7]; 1.5 h): 56.0 (29.4) pg/mL
- Plasma concentration ([7]; 6.5 h): 37.31 (15.1) pg/mL
